Assays:
alphavbeta1 = alphavbeta1 (Homo sapiens, UniProt G3HZ55+P06756); experiment: Cell adhesion assay, alphavbeta1-mediated (CHO cells transfected with human alphav adhering to the latency associated peptide of TGF-beta); type: cell-based; settings: adhesion to LAP of TGF-beta
Procedure: The blockade of integrin alpha 5 beta 1 provides a novel target for the treatment of asthma. […] The intracellular actin-myosin cross-bridging pathway serves as a useful target. Modulating the interactions of the cell and the extracellular matrix impairs the ability of the smooth muscle to transmit tension effectively. The blockade of integrin alpha 5 beta 1 was tested in vitro with human cell lines as well as in vivo with a mouse model of airway hyperresponsiveness. Novel compounds as described herein, and identified in Table 1, have been synthesized and tested in vitro for their ability to inhibit cell adhesion mediated by either alpha5beta1 (adhesion of the colon carcinoma cell line SW480 to fibronectin, a response that is entirely dependent on binding of alpha5beta1 to fibronectin), or alphavbeta1 (adhesion of Chinese Hamster Ovary cells transfected with human alphav to the latency associated peptide of transforming growth factor beta, a response that is entirely dependent on binding of alphavbeta1 to LAP).

alpha5beta1 = alpha5beta1 (Homo sapiens (Human), UniProt P05556+P08648); experiment: Cell adhesion assay, alpha5beta1-mediated (colon carcinoma cell line SW480 adhering to fibronectin); type: cell-based; settings: SW480 cells
Sequence of alpha5beta1 (P08648 42-894): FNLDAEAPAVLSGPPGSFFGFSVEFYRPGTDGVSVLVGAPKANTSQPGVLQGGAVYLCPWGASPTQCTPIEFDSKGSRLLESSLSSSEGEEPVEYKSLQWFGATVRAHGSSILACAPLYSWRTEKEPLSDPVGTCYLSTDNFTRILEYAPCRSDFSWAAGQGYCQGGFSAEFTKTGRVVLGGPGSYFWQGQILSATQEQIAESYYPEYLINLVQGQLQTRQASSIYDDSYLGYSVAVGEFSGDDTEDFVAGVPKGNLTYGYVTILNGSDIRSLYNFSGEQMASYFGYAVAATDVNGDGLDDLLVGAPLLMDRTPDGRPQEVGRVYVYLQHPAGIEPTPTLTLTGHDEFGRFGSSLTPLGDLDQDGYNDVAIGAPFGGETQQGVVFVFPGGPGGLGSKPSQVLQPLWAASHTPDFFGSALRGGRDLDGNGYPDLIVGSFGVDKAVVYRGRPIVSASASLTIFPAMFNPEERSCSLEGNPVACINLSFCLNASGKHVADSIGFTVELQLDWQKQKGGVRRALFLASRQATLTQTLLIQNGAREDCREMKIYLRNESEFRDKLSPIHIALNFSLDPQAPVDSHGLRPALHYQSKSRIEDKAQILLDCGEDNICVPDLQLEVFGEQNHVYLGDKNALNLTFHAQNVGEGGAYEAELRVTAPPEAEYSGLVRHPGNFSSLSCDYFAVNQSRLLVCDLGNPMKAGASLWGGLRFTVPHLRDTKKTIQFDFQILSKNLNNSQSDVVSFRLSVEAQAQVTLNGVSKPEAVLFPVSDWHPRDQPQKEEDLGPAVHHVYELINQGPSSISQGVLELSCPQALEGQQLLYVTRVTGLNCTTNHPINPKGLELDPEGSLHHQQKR
Sequence of alpha5beta1 (P08648 895-1049): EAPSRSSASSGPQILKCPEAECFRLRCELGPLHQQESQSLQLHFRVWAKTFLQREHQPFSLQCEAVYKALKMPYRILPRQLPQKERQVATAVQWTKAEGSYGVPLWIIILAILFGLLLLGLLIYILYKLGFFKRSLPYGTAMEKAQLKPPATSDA
Sequence of alpha5beta1 (P05556 21-798): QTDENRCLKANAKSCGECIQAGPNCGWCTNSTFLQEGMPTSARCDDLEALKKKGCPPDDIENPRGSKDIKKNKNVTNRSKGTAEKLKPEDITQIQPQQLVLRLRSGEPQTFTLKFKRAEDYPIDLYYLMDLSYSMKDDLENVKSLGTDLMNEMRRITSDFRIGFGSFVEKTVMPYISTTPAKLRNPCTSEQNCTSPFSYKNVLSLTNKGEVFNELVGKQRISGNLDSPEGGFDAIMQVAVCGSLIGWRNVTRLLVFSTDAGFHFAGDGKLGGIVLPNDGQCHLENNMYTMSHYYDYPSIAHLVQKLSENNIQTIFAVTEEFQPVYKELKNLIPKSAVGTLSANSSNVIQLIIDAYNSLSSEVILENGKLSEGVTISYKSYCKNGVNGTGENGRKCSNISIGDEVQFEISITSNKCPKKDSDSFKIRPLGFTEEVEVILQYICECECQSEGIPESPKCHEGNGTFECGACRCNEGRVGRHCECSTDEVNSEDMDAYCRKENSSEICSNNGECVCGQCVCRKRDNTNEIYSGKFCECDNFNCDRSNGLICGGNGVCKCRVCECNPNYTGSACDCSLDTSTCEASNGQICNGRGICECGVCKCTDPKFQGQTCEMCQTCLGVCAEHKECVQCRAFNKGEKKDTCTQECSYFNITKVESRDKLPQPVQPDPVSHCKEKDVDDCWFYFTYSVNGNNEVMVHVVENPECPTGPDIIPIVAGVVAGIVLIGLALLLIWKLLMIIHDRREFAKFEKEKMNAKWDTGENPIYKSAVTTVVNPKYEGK
Procedure: The blockade of integrin alpha 5 beta 1 was tested in vitro with human cell lines as well as in vivo with a mouse model of airway hyperresponsiveness.

Sequence of alphavbeta1 (G3HZ55 21-798 limits assumed): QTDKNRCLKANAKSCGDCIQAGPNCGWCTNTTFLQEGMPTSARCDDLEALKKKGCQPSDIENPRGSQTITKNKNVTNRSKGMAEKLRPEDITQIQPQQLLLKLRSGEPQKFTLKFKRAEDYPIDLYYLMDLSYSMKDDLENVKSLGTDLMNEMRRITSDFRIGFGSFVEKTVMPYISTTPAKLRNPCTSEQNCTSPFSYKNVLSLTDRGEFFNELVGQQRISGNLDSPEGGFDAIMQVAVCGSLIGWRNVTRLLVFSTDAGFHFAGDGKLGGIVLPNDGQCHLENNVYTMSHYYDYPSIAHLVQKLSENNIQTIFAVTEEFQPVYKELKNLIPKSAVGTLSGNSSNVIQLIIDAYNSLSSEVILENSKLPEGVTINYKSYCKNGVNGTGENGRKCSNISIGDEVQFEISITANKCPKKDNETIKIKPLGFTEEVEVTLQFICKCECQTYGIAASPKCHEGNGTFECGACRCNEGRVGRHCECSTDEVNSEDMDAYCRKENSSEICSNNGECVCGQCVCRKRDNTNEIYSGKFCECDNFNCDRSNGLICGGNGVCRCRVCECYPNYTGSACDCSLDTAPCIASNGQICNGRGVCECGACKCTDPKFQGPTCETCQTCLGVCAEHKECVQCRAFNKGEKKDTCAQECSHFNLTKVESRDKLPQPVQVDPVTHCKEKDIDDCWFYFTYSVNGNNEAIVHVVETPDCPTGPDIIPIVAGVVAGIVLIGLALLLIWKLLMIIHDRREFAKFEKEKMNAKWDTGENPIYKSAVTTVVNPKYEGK
Sequence of alphavbeta1 (P06756 31-889 limits assumed): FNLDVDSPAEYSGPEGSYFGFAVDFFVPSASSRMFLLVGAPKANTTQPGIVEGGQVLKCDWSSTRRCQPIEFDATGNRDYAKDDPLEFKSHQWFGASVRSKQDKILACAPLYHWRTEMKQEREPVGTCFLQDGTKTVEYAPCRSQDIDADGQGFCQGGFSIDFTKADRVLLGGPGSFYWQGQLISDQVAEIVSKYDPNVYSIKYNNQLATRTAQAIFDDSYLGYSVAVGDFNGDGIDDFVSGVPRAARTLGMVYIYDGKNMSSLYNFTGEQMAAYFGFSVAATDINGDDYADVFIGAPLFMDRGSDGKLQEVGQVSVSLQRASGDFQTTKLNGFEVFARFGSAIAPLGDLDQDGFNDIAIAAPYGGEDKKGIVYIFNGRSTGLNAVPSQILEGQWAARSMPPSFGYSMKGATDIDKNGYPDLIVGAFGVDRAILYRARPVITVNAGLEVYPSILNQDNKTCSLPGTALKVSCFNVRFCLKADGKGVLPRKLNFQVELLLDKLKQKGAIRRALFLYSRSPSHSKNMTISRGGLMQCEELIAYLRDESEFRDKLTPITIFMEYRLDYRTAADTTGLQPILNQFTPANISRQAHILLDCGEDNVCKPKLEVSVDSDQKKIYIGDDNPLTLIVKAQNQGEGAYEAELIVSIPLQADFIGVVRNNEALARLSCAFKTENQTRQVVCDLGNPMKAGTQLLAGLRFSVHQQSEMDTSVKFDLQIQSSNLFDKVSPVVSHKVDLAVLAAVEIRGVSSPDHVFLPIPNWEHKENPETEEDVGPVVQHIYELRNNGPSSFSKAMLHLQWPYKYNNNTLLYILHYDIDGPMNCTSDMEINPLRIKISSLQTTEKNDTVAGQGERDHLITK
Sequence of alphavbeta1 (P06756 891-1048 limits assumed): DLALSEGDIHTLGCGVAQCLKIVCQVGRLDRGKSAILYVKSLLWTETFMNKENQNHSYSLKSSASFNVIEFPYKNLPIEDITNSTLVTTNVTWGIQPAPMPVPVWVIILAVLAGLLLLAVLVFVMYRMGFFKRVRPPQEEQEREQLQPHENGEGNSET

SMILES | IC50 (alphavbeta1) [nM] | IC50 (alpha5beta1) [nM]
N=C(N)NCCCCC(=O)N[C@@H](CCCCNC(=S)Nc1ccc(C2c3ccc(O)cc3OC3=CC(=O)C=CC32)c(C(=O)O)c1)C(=O)NC[C@H](NC(=O)[C@@H]1CCCN1S(=O)(=O)c1ccccc1)C(=O)O (stereo partly drawn) [HIJ-1216, 5-(3-((S)-6-(((S)-2-carboxy-2-((S)-1-(phenylsulfonyl)pyrrolidine-2-carboxamido)ethyl)amino)-5-(5-guanidinopentanamido)-6-oxohexyl)thioureido)-2-(6-hydroxy-3-oxo-9,9a-dihydro-3H-xanthen-9-yl)benzoic acid] | > 10000 | > 10000
N=C(N)Nc1cccc(C(=O)NNC(=O)NC[C@H](NC(=O)[C@@H]2CCCN2S(=O)(=O)c2ccccc2)C(=O)O)c1 [HIJ-1099, (S)-3-(2-(3-guanidinobenzoyl)hydrazine-1-carboxamido)-2-((S)-1-(phenylsulfonyl)pyrrolidine-2-carboxamido)propanoic acid] | 100 to 10000 | < 100
N=C(N)NCCCCCC(=O)NC[C@H](NC(=O)[C@@H]1CCCN1S(=O)(=O)c1ccccc1)C(=O)O [HIJ-1083, (S)-3-(6-guanidinohexanamido)-2-((S)-1-(phenylsulfonyl)pyrrolidine-2-carboxamido)propanoic acid] | 100 to 10000 | 100 to 10000
N=C(N)Nc1cccc(C(=O)NCC(=O)NC[C@H](NC(=O)[C@@H]2CCCN2S(=O)(=O)c2ccccc2)C(=O)O)c1 [HIJ-1094, (S)-3-(2-(3-guanidinobenzamido)acetamido)-2-((S)-1-(phenylsulfonyl)pyrrolidine-2-carboxamido)propanoic acid] | < 100 | < 100
N=C(N)Nc1cc(NC(=O)CCCNC(=O)C23CC4CC(CC(C4)C2)C3)cc(C(=O)NCC(=O)NC[C@H](NC(=O)[C@@H]2CCCN2S(=O)(=O)c2ccccc2)C(=O)O)c1 [HIJ-1483, (2S)-3-(2-(3-(4-((1s,3s)-adamantane-1-carboxamido)butanamido)-5-guanidinobenzamido)acetamido)-2-((S)-1-(phenylsulfonyl)pyrrolidine-2-carboxamido)propanoic acid] |  | < 100
O=C(CNC(=O)c1cccc(Nc2ccccn2)c1)NC[C@H](NC(=O)[C@@H]1CCCN1S(=O)(=O)c1ccccc1)C(=O)O [HIJ-1093] | 100 to 10000 | 100 to 10000
N=C(N)Nc1cc(NC(=O)CCCN)cc(C(=O)NCC(=O)NC[C@H](NC(=O)[C@@H]2CCCN2S(=O)(=O)c2ccccc2)C(=O)O)c1 [HIJ-1437, (S)-3-(2-(3-(4-aminobutanamido)-5-guanidinobenzamido)acetamido)-2-((S)-1-(phenylsulfonyl)pyrrolidine-2-carboxamido)propanoic acid] |  | < 100
N=C(N)NCCCCNC(=O)NC[C@H](NC(=O)[C@@H]1CCCN1S(=O)(=O)c1ccccc1)C(=O)O [HIJ-1016, (S)-3-(3-(4-guanidinobutyl)ureido)-2-((S)-1-(phenylsulfonyl)pyrrolidine-2-carboxamido)propanoic acid] | < 100 | 100 to 10000
N=C(N)NCCCCCCNC(=O)NC[C@H](NC(=O)[C@@H]1CCCN1S(=O)(=O)c1ccccc1)C(=O)O [HIJ-1018, (S)-3-(3-(6-guanidinohexyl)ureido)-2-((S)-1-(phenylsulfonyl)pyrrolidine-2-carboxamido)propanoic acid] | < 100 | 100 to 10000
N=C(N)NCCCCCNC(=O)NC[C@H](NC(=O)[C@@H]1CCCN1S(=O)(=O)c1ccccc1)C(=O)O [HIJ-1017, (S)-3-(3-(5-guanidinopentyl)ureido)-2-((S)-1-(phenylsulfonyl)pyrrolidine-2-carboxamido)propanoic acid] | < 100 | 100 to 10000

Source: US10836720B2, “Inhibitors of integrin alpha 5 beta 1 and methods of use” (The Regents of the University of California, priority 2016, dated 2020)
